Assay results as given in paper PMC5024318, “Crystal structures of the bifunctional tRNA methyltransferase Trm5a” (Scientific Reports, 2016).

Key:
[1] = target: T1, PaTrm5a (Pyrococcus abyssi, UniProt Q9V2G1); assay: X-ray crystal structure, cocrystallisation with SAM (MTA as its degradation product), […] Å; assay type: binding; conditions: PEG 3350, HEPES pH 7.5, Ca(OAc)2, KCl, 25 °C; SAM site in D3
T1 construct: gene taw22

[2] = target: T1, PaTrm5a; assay: X-ray crystal structure, cocrystallisation, […] Å; assay type: binding; conditions: PEG 3350, HEPES pH 7.5, Ca(OAc)2, KCl, 25 °C; SAM site in D3

T1 sequence (Q9V2G1 whole entry): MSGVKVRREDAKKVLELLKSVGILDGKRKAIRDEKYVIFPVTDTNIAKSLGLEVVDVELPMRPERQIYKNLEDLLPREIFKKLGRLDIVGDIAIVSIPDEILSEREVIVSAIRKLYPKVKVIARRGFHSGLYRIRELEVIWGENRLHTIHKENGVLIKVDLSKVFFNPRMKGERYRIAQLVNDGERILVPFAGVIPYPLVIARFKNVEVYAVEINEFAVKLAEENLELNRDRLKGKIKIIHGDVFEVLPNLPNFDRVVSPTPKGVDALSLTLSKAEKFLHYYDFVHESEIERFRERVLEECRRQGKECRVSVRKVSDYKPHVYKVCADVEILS

Compound | X-ray crystal structure, cocrystallisation with SAM (MTA as its degradation prod) [1] | X-ray crystal structure, cocrystallisation, 2.00 Å [2]
CSC[C@H]1O[C@@H](n2cnc3c(N)ncnc32)[C@H](O)[C@@H]1O [MTA, 5′-methylthioadenosine] | MTA fits well in the ligand-binding pocket, and interacts with the enzyme | –
Nc1ncnc2c1ncn2[C@@H]1O[C@H](CSCC[C@H](N)C(=O)O)[C@@H](O)[C@H]1O [SAH, S-adenosyl-L-homocysteine] | – | the adenosine moiety and the methionine group are specifically recognised by hydrogen bonding interactions
